The text below walks through data of patent US10221139B2, “Inhibitors of histone demethylases” (Gilead Sciences, Inc., priority 2012, dated 2019).

SMILES strings stand for the structures.

Assay type in all cases: biochemical
In one assay the target is T1, GASC1 (KDM4C, JMJD2C) (Homo sapiens, UniProt Q9H3R0).
T1 construct: 1-349; host or cells: E. coli
T1 sequence (Q9H3R0 1-349): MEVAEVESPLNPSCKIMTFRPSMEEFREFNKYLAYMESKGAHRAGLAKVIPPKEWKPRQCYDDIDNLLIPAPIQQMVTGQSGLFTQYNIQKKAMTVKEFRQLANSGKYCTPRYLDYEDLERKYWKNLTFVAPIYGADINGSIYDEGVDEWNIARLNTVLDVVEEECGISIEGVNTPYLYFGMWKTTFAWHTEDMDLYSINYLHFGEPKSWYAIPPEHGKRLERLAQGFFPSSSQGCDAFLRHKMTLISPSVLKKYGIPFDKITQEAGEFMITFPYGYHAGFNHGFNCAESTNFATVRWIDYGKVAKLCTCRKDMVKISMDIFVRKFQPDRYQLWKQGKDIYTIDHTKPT
Description: Histone lysine demethylase AlphaLISA assay, GASC1. The conditions noted are these: substrate BK9M3. The procedure: (§1) Example 2: Histone Lysine Demethylase AlphaLISA Assays for IC50 Value Determination
(§2) Assays are performed analogously to the protocol described by Perkin Elmer (Roy et al. Perkin Elmer Technical Note: AlphaLISA #12, April 2011).
(§3) Enzymes are dissolved in enzyme buffer and incubated for 10 min before 5 μL is added to 5 μL 3% DMSO solutions of compounds in enzyme buffer. Incubated for another 10 minutes, before 5 μL substrate solution is added and the reaction mixture is incubated at room temperature for the given period. 10 μL acceptor beads, suspended at given dilutions in Epigenetic Buffer (Perkin Elmer AL008) from stock, are added and the suspension is incubated 60 minutes in the dark at room temperature, before 10 μL suspension (at the given dilutions in Epigenetic Buffer) of streptavidin donor beads (Perkin Elmer 6760002) in Epigenetic Buffer is added. After incubation at room temperature in the dark the plates are read. Reaction conditions are seen in Table 2b.
On the technique in general: Alpha assays give light when donor and acceptor beads are brought close together.

Another assay has as its target T2, UTX (KDM6A) (Homo sapiens, UniProt O15550).
T2 construct: 919-1401; host or cells: E. coli
Description: Histone lysine demethylase AlphaLISA assay, UTX. As to conditions: substrate BK27M3. The procedure: as §1, §2, §3

The next assay deals with T3, PLU1 (KDM5B) (Homo sapiens, UniProt Q9UGL1).
T3 construct: 1-809; host or cells: E. coli
T3 sequence (Q9UGL1 1-809): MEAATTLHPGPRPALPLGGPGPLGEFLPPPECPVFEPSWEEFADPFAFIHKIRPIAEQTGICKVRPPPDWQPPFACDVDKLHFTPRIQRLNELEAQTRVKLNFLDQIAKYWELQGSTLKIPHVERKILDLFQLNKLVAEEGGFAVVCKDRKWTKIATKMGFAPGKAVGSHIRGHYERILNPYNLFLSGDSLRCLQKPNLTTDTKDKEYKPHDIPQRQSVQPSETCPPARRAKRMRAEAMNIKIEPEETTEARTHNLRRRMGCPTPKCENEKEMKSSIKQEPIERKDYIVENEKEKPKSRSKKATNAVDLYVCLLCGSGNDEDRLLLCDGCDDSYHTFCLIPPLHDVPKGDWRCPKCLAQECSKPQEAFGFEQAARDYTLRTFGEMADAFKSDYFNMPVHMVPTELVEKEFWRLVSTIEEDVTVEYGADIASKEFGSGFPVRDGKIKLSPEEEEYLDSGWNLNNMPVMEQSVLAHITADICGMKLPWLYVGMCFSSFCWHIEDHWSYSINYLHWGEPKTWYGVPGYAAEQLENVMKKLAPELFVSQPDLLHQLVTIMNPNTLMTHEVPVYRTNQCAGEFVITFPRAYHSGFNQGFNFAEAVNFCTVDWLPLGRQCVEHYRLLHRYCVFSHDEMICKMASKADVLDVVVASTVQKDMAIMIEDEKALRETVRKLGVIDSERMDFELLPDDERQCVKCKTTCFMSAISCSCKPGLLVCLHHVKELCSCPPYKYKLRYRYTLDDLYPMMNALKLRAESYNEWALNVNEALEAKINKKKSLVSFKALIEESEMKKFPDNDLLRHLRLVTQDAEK
Description: Histone lysine demethylase AlphaLISA assay, PLU1. As to conditions: substrate H3K4M3B. The procedure: as §1, §2, §3

T2 sequence (O15550 919-1401): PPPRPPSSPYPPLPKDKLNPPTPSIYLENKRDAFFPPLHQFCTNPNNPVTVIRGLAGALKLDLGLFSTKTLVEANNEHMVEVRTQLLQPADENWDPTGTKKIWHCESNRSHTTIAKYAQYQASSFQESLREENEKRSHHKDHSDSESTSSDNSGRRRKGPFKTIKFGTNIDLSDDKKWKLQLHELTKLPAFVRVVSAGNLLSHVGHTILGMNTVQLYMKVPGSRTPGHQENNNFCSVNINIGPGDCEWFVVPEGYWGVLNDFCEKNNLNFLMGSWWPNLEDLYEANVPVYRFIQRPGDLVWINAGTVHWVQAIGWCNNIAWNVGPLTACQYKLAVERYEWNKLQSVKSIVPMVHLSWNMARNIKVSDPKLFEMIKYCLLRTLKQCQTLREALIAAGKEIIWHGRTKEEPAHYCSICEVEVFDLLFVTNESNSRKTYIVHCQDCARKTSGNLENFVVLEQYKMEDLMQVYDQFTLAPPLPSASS

Take `O=C(O)c1ccnc(CNCC(=O)N2CCC[C@@H]2CN2CCCC2)c1` [#18, 2-[({2-oxo-2-[(2R)-2-(pyrrolidin-1-ylmethyl)pyrrolidin-1-yl]ethyl}amino)methyl]pyridine-4-carboxylic acid]: the IC50 is below 100 nM on GASC1 (KDM4C, JMJD2C); at least 1000 nM against UTX (KDM6A); below 100 nM against PLU1 (KDM5B).
Take `CC(C)(C)OC(=O)N1CC[C@@H](NCc2cc(C(=O)O)ccn2)C1` [#19, 2-({[(3R)-1-[(tert-butoxy)carbonyl]pyrrolidin-3-yl]amino}methyl)pyridine-4-carboxylic acid]: the IC50 on GASC1 (KDM4C, JMJD2C) is at least 1000 nM; on UTX (KDM6A), at least 1000 nM; at PLU1 (KDM5B) it was at least 1000 nM.
As to `O=C(O)c1ccnc(CNCCCNCCCN2CCCC2)c1` [#21, 2-{[(3-{[3-(pyrrolidin-1-yl)propyl]amino}propyl)amino]methyl}pyridine-4-carboxylic acid], the half-inhibitory concentration (IC50) against GASC1 (KDM4C, JMJD2C) was below 100 nM; at UTX (KDM6A), at least 1000 nM; against PLU1 (KDM5B) it was below 100 nM.
As to `CC(C)CCNCc1cc(C(=O)O)ccn1` [#22, 2-{[(3-methylbutyl)amino]methyl}pyridine-4-carboxylic acid], the IC50 was 100 to 1000 nM on GASC1 (KDM4C, JMJD2C); at least 1000 nM against UTX (KDM6A); 100 to 1000 nM at PLU1 (KDM5B).
On to `CN(CCC(N)=O)C(=O)CNCc1cc(C(=O)O)ccn1` [#23, 2-[({[(2-carbamoylethyl)(methyl)carbamoyl]methyl}amino)methyl]pyridine-4-carboxylic acid], for which the IC50 at GASC1 (KDM4C, JMJD2C) was below 100 nM; on UTX (KDM6A), at least 1000 nM; on PLU1 (KDM5B) it was below 100 nM.
As to `O=C(O)c1ccnc(CNCC(=O)N2CCCCC2CO)c1` (stereo not drawn) [#24, 2-[({2-[2-(hydroxymethyl)piperidin-1-yl]-2-oxoethyl}amino)methyl]pyridine-4-carboxylic acid], the IC50 against GASC1 (KDM4C, JMJD2C) is below 100 nM; on UTX (KDM6A), at least 1000 nM; against PLU1 (KDM5B) it was below 100 nM.
`CN(CCCc1nccn1C)C(=O)CNCc1cc(C(=O)O)ccn1` [#25, 2-{[({methyl[3-(1-methyl-1H-imidazol-2-yl)propyl]carbamoyl}methyl)amino]methyl}pyridine-4-carboxylic acid]: the IC50 is below 100 nM against GASC1 (KDM4C, JMJD2C); at least 1000 nM at UTX (KDM6A); below 100 nM on PLU1 (KDM5B).
Regarding `CCN1CCCC1CNC(=O)CNCc1cc(C(=O)O)ccn1` (stereo not drawn) [#26, 2-{[({[(1-ethylpyrrolidin-2-yl)methyl]carbamoyl}methyl)amino]methyl}pyridine-4-carboxylic acid], the IC50 is below 100 nM against GASC1 (KDM4C, JMJD2C); at least 1000 nM against UTX (KDM6A); below 100 nM against PLU1 (KDM5B).
For the compound `CN(Cc1ccnn1C)C(=O)CNCc1cc(C(=O)O)ccn1` [#27, 2-{[({methyl[(1-methyl-1H-pyrazol-5-yl)methyl]carbamoyl}methyl)amino]methyl}pyridine-4-carboxylic acid], the IC50 against GASC1 (KDM4C, JMJD2C) is below 100 nM; at UTX (KDM6A) it was at least 1000 nM; at PLU1 (KDM5B) it was below 100 nM.
For the compound `O=C(CNCc1cc(C(=O)O)ccn1)NC1CCN(CCCc2ccccc2)CC1` [#30, 2-{[({[1-(3-phenylpropyl)piperidin-4-yl]carbamoyl}methyl)amino]methyl}pyridine-4-carboxylic acid], the IC50 on GASC1 (KDM4C, JMJD2C) was below 100 nM; against UTX (KDM6A), at least 1000 nM; against PLU1 (KDM5B), below 100 nM.
For `O=C(CNCc1cc(C(=O)O)ccn1)NC1CCN(Cc2ccco2)CC1` [#31, 2-{[({[1-(furan-2-ylmethyl)piperidin-4-yl]carbamoyl}methyl)amino]methyl}pyridine-4-carboxylic acid], the IC50 against GASC1 (KDM4C, JMJD2C) was below 100 nM; at UTX (KDM6A) it was 100 to 1000 nM; on PLU1 (KDM5B), below 100 nM.
For the compound `O=C(CNCc1cc(C(=O)O)ccn1)NC1CCN(Cc2ccc(-c3ccccc3)o2)CC1` [#32, 2-({[({1-[(5-phenylfuran-2-yl)methyl]piperidin-4-yl}carbamoyl)methyl]amino}methyl)pyridine-4-carboxylic acid], the IC50 was below 100 nM at GASC1 (KDM4C, JMJD2C); at least 1000 nM on UTX (KDM6A); below 100 nM against PLU1 (KDM5B).
For the compound `CCN(CCC#N)C(=O)CNCc1cc(C(=O)O)ccn1` [#33, 2-[({[(2-cyanoethyl)(ethyl)carbamoyl]methyl}amino)methyl]pyridine-4-carboxylic acid], the IC50 on GASC1 (KDM4C, JMJD2C) was below 100 nM; on UTX (KDM6A) it was at least 1000 nM; against PLU1 (KDM5B), below 100 nM.
As to `CN(CCCNCc1cc(C(=O)O)ccn1)Cc1ccccc1F` [#36, 2-{[(3-{[(2-fluorophenyl)methyl](methyl)amino}propyl)amino]methyl}pyridine-4-carboxylic acid], the IC50 is below 100 nM at GASC1 (KDM4C, JMJD2C); at least 1000 nM against UTX (KDM6A); below 100 nM on PLU1 (KDM5B).
On to `O=C(O)c1ccnc(CNCC(=O)N2CCCC(Cc3nc4ccccc4[nH]3)C2)c1` (stereo not drawn) [#38, 2-[({2-[3-(1H-1,3-benzodiazol-2-ylmethyl)piperidin-1-yl]-2-oxoethyl}amino)methyl]pyridine-4-carboxylic acid], for which the IC50 is below 100 nM against GASC1 (KDM4C, JMJD2C); at least 1000 nM against UTX (KDM6A); below 100 nM against PLU1 (KDM5B).
For `O=C(CNCc1cc(C(=O)O)ccn1)NC1CCN(CCc2ccccc2)C1` (stereo not drawn) [#39, 2-{[({[1-(2-phenylethyl)pyrrolidin-3-yl]carbamoyl}methyl)amino]methyl}pyridine-4-carboxylic acid], the IC50 on GASC1 (KDM4C, JMJD2C) is below 100 nM; on UTX (KDM6A), at least 1000 nM; against PLU1 (KDM5B), below 100 nM.
As to `O=C(O)c1ccnc(CNCCCN2CCC(Cc3ccccc3)CC2)c1` [#40, 2-({[3-(4-benzylpiperidin-1-yl)propyl]amino}methyl)pyridine-4-carboxylic acid], the IC50 against GASC1 (KDM4C, JMJD2C) was below 100 nM; on UTX (KDM6A), at least 1000 nM; at PLU1 (KDM5B), below 100 nM.
As for `O=C(O)c1ccnc(CNCCCNCCOc2ccccc2)c1` [#41, 2-[({3-[(2-phenoxyethyl)amino)propyl}amino)methyl]pyridine-4-carboxylic acid], the IC50 against GASC1 (KDM4C, JMJD2C) is below 100 nM; on UTX (KDM6A), at least 1000 nM; against PLU1 (KDM5B), below 100 nM.
For the compound `CN1CCN(Cc2ccc(CN(C)C(=O)CNCc3cc(C(=O)O)ccn3)cc2)CC1` [#42, 2-[({[methyl({4-[(4-methylpiperazin-1-yl)methyl]phenyl}methyl)carbamoyl]methyl}amino)methyl]pyridine-4-carboxylic acid], the half-inhibitory concentration (IC50) was below 100 nM at GASC1 (KDM4C, JMJD2C); 100 to 1000 nM against UTX (KDM6A); below 100 nM at PLU1 (KDM5B).
As to `O=C(O)c1ccnc(CNCC(=O)N2CCCC2Cc2ccccc2)c1` (stereo not drawn) [#43, 2-({[2-(2-benzylpyrrolidin-1-yl)-2-oxoethyl]amino}methyl)pyridine-4-carboxylic acid], the IC50 against GASC1 (KDM4C, JMJD2C) was below 100 nM; against UTX (KDM6A), at least 1000 nM; on PLU1 (KDM5B) it was below 100 nM.
Regarding `CCOC(=O)c1ccccc1OC(=O)c1ccnc(CNCCCCN(CC)CC)c1` [#52, 2-(ethoxycarbonyl)phenyl 2-({[4-(diethylamino)butyl]amino}methyl)pyridine-4-carboxylate], the IC50 against GASC1 (KDM4C, JMJD2C) is 100 to 1000 nM; at UTX (KDM6A) it was at least 1000 nM; on PLU1 (KDM5B) it was below 100 nM.
For `CCN(CC)CCCCNCc1cc(C(=O)OCCN(C)C)ccn1` [#53, 2-(dimethylamino)ethyl 2-({[4-(diethylamino)butyl]amino}methyl)pyridine-4-carboxylate], the IC50 on GASC1 (KDM4C, JMJD2C) is below 100 nM; against UTX (KDM6A), at least 1000 nM; on PLU1 (KDM5B), below 100 nM.
For `CCN(CC)CCCCNCc1cc(C(=O)OCCCN(C)C)ccn1` [#54, 3-(dimethylamino)propyl 2-({[4-(diethylamino)butyl]amino}methyl)pyridine-4-carboxylate], the IC50 is 100 to 1000 nM against GASC1 (KDM4C, JMJD2C); at least 1000 nM at UTX (KDM6A); below 100 nM at PLU1 (KDM5B).

As a reminder, the IC50 is the concentration that gives 50% inhibition. Read a low IC50 as higher potency.
